Reference: BindingDB's records for patent WO2023001061 (Jingrui Biopharma, 2023)

Biological target: CDK-activating kinase assembly factor MAT1/Cyclin-H/Cyclin-dependent kinase 7 (Homo sapiens, UniProt P50613)
Assay: In Vitro Kinase assay (CDK7) and IC 50 determination
Description: The kinase assay was carried out by Sundia MediTech Co., Ltd.

Chain of CDK-activating kinase assembly factor MAT1/Cyclin-H/Cyclin-dependent kinase 7 (P51946 whole entry): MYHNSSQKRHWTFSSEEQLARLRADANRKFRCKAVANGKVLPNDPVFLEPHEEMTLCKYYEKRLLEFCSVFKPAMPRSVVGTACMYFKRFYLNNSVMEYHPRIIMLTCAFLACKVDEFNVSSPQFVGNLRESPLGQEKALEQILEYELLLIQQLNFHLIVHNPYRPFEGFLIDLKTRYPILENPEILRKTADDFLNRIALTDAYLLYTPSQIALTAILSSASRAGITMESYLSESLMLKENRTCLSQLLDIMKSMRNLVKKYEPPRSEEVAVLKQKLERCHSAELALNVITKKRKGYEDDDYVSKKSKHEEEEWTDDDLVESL
Chain of CDK-activating kinase assembly factor MAT1/Cyclin-H/Cyclin-dependent kinase 7 (P50613 whole entry): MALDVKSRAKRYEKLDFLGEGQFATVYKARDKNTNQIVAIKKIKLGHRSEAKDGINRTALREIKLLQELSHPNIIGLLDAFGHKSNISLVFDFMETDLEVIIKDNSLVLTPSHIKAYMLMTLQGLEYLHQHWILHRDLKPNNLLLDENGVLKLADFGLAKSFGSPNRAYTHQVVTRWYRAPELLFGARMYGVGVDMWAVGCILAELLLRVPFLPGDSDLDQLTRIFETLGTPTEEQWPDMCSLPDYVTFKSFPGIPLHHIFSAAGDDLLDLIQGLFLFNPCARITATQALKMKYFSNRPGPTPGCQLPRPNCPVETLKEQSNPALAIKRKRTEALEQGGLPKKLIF
Chain of CDK-activating kinase assembly factor MAT1/Cyclin-H/Cyclin-dependent kinase 7 (P51948 whole entry, further chain): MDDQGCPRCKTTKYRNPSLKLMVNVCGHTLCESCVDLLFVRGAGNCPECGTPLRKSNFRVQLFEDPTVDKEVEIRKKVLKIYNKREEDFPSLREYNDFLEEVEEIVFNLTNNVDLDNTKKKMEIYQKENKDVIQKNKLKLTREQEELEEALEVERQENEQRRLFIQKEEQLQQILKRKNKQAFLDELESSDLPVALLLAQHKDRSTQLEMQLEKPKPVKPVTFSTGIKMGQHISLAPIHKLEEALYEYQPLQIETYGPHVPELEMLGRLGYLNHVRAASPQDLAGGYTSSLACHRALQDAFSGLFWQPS

Compound | IC50
CC(C)c1cnn2c(NCC3CCCN3C)nc(OC3CCN(C)CC3)nc12 (stereo not given) [WO2023001061, Example 23] | < 0.5 µM
CC(C)c1cnn2c(NCc3ccc4cccc(N(C)C)c4n3)nc(OC3CCN(C)CC3)nc12 [WO2023001061, Example 27] | < 0.05 µM
CC(C)c1cnn2c(NCc3ccccc3N(C)C)cc(OC3CCN(C)CC3)nc12 [WO2023001061, Example 1] | < 0.05 µM
CC(C)c1cnn2c(NCc3nn(C)c4ccccc34)cc(NC[C@H]3CCNC[C@@H]3O)nc12 [WO2023001061, Example 35] | < 0.05 µM
CC(C)c1cnn2c(NCC3CCCN3C)cc(NC[C@H]3CCNC[C@@H]3O)nc12 (stereo not given in full) [WO2023001061, Example 2] | < 0.05 µM
CC(C)c1cnn2c(NCc3cncn3C)cc(NC[C@H]3CCNC[C@@H]3O)nc12 [WO2023001061, Example 13] | < 0.05 µM
CC(C)c1cnn2c(NCc3ccnn3C)nc(OC3CCN(C)CC3)nc12 [WO2023001061, Example 26] | < 0.05 µM
CC(C)c1cnn2c(NCC3CCCN3C)cc(OC3CCN(C)CC3)nc12 (stereo not given) [WO2023001061, Example 8] | < 0.5 µM
CC(C)c1cnn2c(NCc3nc4cc(N(C)C)ccc4s3)cc(NC[C@H]3CCNC[C@@H]3O)nc12 [WO2023001061, Example 4] | < 0.05 µM
CC(C)c1cnn2c(NCc3nccs3)cc(NC[C@H]3CCNC[C@@H]3O)nc12 [WO2023001061, Example 31] | < 0.05 µM
CC(C)c1cnn2c(NCc3ccnn3C)cc(NC[C@H]3CCNC[C@@H]3O)nc12 [WO2023001061, Example 6] | < 0.05 µM

Continued, values first:

IC50 | Compound
< 0.05 µM | CC(C)c1cnn2c(NCc3ccn[nH]3)cc(NC[C@H]3CCNC[C@@H]3O)nc12 [WO2023001061, Example 9]
< 0.05 µM | CC(C)c1cnn2c(NCc3cccnc3N(C)C)cc(NC[C@H]3CCNC[C@@H]3O)nc12 [WO2023001061, Example 15]
< 0.05 µM | CC(C)c1cnn2c(NCc3nc4cc(Cl)ccc4s3)cc(NC[C@H]3CCNC[C@@H]3O)nc12 [WO2023001061, Example 39]
< 0.05 µM | CC(C)c1cnn2c(NCc3ccnn3C)cc(OC3CCN(C)CC3)nc12 [WO2023001061, Example 7]
< 0.05 µM | Cc1cc(CNc2nc(OC3CCN(C)CC3)nc3c(C(C)C)cnn23)n(C2CC2)n1 [WO2023001061, Example 28]
< 0.05 µM | CC(C)c1cnn2c(NCc3nc4ccccc4n3C)cc(NC[C@H]3CCNC[C@@H]3O)nc12 [WO2023001061, Example 36]
< 0.05 µM | CC(C)c1cnn2c(NCc3ccnn3C3CC3)cc(NC[C@H]3CCNC[C@@H]3O)nc12 [WO2023001061, Example 11]
< 0.05 µM | CC(C)c1cnn2c(NCc3ccc4cccc(N(C)C)c4n3)cc(NC[C@H]3CCNC[C@@H]3O)nc12 [WO2023001061, Example 5]
< 0.05 µM | CC(C)c1cnn2c(NCc3nc4cc(C(F)(F)F)ccc4s3)cc(NC[C@H]3CCNC[C@@H]3O)nc12 [WO2023001061, Example 38]
< 0.05 µM | CC(C)c1cnn2c(NCc3nc(C4CC4)cs3)cc(NC[C@H]3CCNC[C@@H]3O)nc12 [WO2023001061, Example 48]
< 0.05 µM | CC(C)c1cnn2c(NCc3nccn3C)cc(NC[C@H]3CCNC[C@@H]3O)nc12 [WO2023001061, Example 14]
< 0.05 µM | CC(C)c1cnn2c(NCc3nc4ccccc4s3)cc(NC[C@H]3CCNC[C@@H]3O)nc12 [WO2023001061, Example 30]
< 0.05 µM | CC(C)c1cnn2c(NCc3ccnn3C(C)C)cc(NC[C@H]3CCNC[C@@H]3O)nc12 [WO2023001061, Example 10]
< 0.05 µM | CC(C)c1cnn2c(NCc3ccn(C)n3)cc(NC[C@H]3CCNC[C@@H]3O)nc12 [WO2023001061, Example 29]
